# Measured values as given in US20240300904A1, “PYRIDAZINONES FOR THE TREATMENT OR PREVENTION OF HYPERTENSION” (UNIVERSITETET I OSLO, priority 2021, published 2024).
# Key:
# rat aortic rings = assay: Vasorelaxation: ANP-mediated relaxation of rat aortic rings; conditions: conc. response of ANP in the absence (ANP) or presence of 10 μM compound, L-NAME present
# Procedure: Male Sprague-Dawley (6-8 weeks old) rats were killed by cervical dislocation. The thoracic aorta was dissected and rings (˜4 mm length) mounted in organ baths containing physiological salt solution (PSS; composition in mM: NaCl 119, KCl 4.7, CaCl2 2.5, MgSO4 1.2, NaHCO3 25, KH2PO4 1.2, and glucose 5.5), maintained at 37° C. and gassed with 5% CO2 in O2. Changes in isometric tension were measured in the tissues under a basal tension of 1 g. After equilibration, vessels were repeatedly contracted with KCl (48 mM) until responses were reproducible. A cumulative concentration-response curve was then constructed to the thromboxane receptor agonist 9,11-dideoxy-11α,9α-epoxymethano-prostaglandin F2α (U46619; 10 nm-1 μM). Arteries were then treated with the nitric oxide synthase (NOS) inhibitor L-NG-nitroarginine methyl ester (300 μM; to block the production of endogenous nitric oxide) and pre-contracted with an EC80 concentration of U46619. Once a stable response was achieved, cumulative concentration-response curves were constructed to ANP (0.001-1 μM) in the absence or presence of Compound 1 or Compound 2 (all 10 μM, incubated for 30 min prior to the administration of ANP).
# dopamine D1-receptor = target: T1, dopamine D1-receptor (Homo sapiens, UniProt P21728); assay: Safety pharmacology panel (SafetyScan E/IC50 ELECT); assay type: cell-based; conditions: minor activity; 78-target panel
# T1 construct: purchased Discover X/Eurofins SafetyScan E/IC50 ELECT
# T1 sequence (P21728 whole entry): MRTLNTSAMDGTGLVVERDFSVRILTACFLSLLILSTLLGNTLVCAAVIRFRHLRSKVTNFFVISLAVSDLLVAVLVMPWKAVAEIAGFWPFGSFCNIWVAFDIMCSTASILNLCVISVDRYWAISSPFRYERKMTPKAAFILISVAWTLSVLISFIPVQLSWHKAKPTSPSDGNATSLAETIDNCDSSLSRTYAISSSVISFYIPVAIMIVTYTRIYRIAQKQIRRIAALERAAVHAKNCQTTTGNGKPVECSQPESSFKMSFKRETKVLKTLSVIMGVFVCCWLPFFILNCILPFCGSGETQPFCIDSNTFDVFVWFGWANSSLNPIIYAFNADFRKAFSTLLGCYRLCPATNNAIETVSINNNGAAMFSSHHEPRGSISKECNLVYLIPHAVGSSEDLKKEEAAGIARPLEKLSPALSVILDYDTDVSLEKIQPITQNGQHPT
# β1-adrenergic receptor = target: T2, β1-adrenergic receptor (Homo sapiens, UniProt P08588); assay: as above; assay type: cell-based; conditions: minor activity; 78-target panel
# T2 construct: purchased Discover X/Eurofins SafetyScan E/IC50 ELECT
# T2 sequence (P08588 whole entry): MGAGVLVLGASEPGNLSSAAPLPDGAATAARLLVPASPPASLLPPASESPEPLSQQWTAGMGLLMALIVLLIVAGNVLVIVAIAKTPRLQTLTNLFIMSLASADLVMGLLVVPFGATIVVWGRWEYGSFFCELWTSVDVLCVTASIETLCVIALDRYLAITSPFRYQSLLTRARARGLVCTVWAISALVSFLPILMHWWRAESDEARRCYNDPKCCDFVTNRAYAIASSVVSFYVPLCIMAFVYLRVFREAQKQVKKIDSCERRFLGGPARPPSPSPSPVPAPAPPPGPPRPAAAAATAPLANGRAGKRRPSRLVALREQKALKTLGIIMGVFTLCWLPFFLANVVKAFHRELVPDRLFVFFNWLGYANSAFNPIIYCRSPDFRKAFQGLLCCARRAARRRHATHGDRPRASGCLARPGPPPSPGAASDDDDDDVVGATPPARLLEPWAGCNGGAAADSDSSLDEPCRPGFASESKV
# HeLa cells = assay: MTT assay (cytotoxicity); assay type: cell-based; conditions: 24 and 48 h, compared with compounds 3 and 11
# Procedure: Cells were incubated for 24 and 48 h with increasing concentrations of the indicated compound. The data represent formazan formation (absorbance) as a percentage of the negative control (1% DMSO).
# The MTT (3-(4,5-dimethylthiazol-2-yl)-2,5-diphenyltetrazolium bromide) tetrazolium reduction assay was used to measure cytotoxicity of the compounds in vitro. Viable cells with active metabolism convert MTT into a purple colored formazan product with an absorbance maximum near 570 nm. HeLa cells were plated in 96-well plates in culture medium (DMEM (Dulbecco's Modified Eagle's Medium, Gibco®, ThermoFischer Scientific) supplemented with 10% Fetal Bovine Serum (FBS), 100 U/ml penicillin, 0.1 mg/ml streptomycin) the day before experiments. Cells were incubated for 24 or 48 h at 37° C. with increasing concentrations of each compound (in 1% DMSO). 1% DMSO and 20 mM H2O2 in culture medium were used as negative and positive control, respectively. MTT solution at a final concentration of 0.45 mg/ml was added to the wells and cells incubated for 1 to 4 hours at 37° C. Solubilization solution (40% (vol/vol) dimethylformamide (DMF), 2% (vol/vol) glacial acetic acid and 16% (wt/vol) sodium dodecyl sulfate (SDS)) was added to each well to dissolve formazan crystals. Absorbance was measured at 570 nm.
# [1] = target: T3, human (h) natriuretic peptide receptor A (hNPR-A) (Homo sapiens, UniProt P16066); assay: AlphaScreen assay for cGMP: BNP-mediated NPR-A activity (cGMP production); assay type: cell-based; conditions: conc. response of compound + 0.1 nM BNP
# T3 construct: expressed in transfected cells
# T3 sequence (P16066 33-1061): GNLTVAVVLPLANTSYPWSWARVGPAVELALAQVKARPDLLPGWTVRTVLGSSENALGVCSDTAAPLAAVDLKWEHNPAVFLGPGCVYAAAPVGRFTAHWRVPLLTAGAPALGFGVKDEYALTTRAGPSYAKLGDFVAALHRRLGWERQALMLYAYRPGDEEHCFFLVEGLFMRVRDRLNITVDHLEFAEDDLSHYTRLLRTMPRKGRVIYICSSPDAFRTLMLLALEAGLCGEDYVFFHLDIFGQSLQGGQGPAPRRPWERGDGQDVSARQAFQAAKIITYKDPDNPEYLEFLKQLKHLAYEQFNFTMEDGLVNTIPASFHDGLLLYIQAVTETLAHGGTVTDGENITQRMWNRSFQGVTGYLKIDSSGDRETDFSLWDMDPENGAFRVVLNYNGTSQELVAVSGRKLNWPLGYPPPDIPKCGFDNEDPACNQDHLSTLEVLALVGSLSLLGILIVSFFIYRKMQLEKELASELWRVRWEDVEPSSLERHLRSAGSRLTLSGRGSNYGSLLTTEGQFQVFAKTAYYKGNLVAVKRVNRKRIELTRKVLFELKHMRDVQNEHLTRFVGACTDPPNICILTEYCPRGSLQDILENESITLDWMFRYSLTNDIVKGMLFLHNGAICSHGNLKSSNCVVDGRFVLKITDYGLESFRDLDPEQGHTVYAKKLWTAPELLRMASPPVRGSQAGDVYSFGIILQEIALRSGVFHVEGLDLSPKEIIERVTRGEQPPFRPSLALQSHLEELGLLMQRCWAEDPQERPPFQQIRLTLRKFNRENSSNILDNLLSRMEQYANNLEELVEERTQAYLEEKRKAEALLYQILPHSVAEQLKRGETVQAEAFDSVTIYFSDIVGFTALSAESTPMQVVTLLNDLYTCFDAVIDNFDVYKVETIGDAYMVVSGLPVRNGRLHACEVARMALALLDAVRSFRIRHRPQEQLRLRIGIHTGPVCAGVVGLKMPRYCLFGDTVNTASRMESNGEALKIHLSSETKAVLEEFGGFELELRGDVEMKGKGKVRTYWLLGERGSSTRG
# T3 sequence (P16860 103-134 partner limits assumed): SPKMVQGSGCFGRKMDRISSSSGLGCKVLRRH
# Procedure: QBIHEK293A cells stably transfected with human (h) natriuretic peptide receptor A (hNPR-A) and hNPR-B were made as described in Bach et al., Naunyn Schmiedebergs Arch. Pharmacol. 2014; 387:5-14. Cells were grown in DMEM (Dulbecco's Modified Eagle's Medium, Gibco®, ThermoFischer Scientific) supplemented with 10% Fetal Bovine Serum (FBS), 100 U/ml penicillin, 0.1 mg/ml streptomycin, and 0.4 mg/ml G418 (geneticin) as selection antibiotic.
# The AlphaScreen assay for cGMP (Perkin Elmer) was performed as described in Bach et al. (see above). NPR-A and NPR-B expressing HEK293 cells were split the day before the experiment and harvested using an EDTA solution (Versene, Invitrogen, ThermoFischer Scientific). A final concentration of 6000 cells/well was re-suspended in stimulation buffer (5 mM HEPES in HBSS at pH 7.4, 0.1% BSA) with IBMX (0.7 mM final). Compounds were dissolved in stimulation buffer and added to wells in increasing concentrations. Cells were incubated with the indicated compounds 20 minutes before addition of agonists (human BNP, human CNP or human proBNP) in various concentrations. Cells were stimulated for 20 minutes with agonist before the reactions were stopped (i.e. cells lysed) by adding the AlphaScreen Acceptor bead mix (Acceptor beads-anti-cGMP antibody and 0.5% Tween-20 in 5 mM HEPES buffer at pH 7.4). After 1 hour incubation, the Donor bead mix (Donor beads, biotinylated cGMP, 0.5% Tween-20 in 5 mM HEPES buffer at pH 7.4) was added (40 μl total volume) and incubation continued for 2 hours. The luminescence signals were analyzed quantitatively by reading of the plates on the EnVision® Multilabel Plate Reader (Perkin Elmer) using AlphaScreen emission 570 nm filter.
# β2-adrenergic receptor = target: T4, β2-adrenergic receptor (Homo sapiens, UniProt P07550); assay: Safety pharmacology panel (SafetyScan E/IC50 ELECT); assay type: cell-based; conditions: minor activity; 78-target panel
# T4 construct: purchased Discover X/Eurofins SafetyScan E/IC50 ELECT
# T4 sequence (P07550 whole entry): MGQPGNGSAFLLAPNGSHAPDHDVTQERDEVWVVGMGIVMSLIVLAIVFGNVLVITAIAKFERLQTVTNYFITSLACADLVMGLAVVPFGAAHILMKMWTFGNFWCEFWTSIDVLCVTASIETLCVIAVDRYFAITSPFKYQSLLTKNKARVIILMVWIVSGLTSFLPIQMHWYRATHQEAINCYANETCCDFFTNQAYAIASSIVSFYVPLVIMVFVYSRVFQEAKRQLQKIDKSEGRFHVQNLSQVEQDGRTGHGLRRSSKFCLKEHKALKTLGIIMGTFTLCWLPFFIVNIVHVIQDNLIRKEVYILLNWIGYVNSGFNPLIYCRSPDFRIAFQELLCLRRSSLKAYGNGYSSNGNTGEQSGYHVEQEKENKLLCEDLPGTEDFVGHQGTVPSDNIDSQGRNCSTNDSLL
# [2] = Cytotoxicity screening (Cyprotex Discovery Ltd.); assay type: cell-based
Compound,-LogEC50 (ANP) (rat aortic rings),IC50 (dopamine D1-receptor),IC50 (β1-adrenergic receptor),toxicity in MTT assay relative to corresponding dichloro compounds (HeLa cells),"EC50 ([1]; NPR-A-expressing HEK293 cells, read-out: -LogEC50 (compound) (converted))","Emax ([1]; percentage of maximum BNP-mediated cGMP production, read-out: Max Response)",IC50 (β2-adrenergic receptor),non-cytotoxic concentration relative to EC50 at the target ([2]; 15 μM versus EC50 of compound 24 at the target),"cytotoxic effects (cell count, nuclear size, DNA structure, cell membrane permeability, mitochondrial mass, mitochondrial membrane potential, cytochrome c) ([2]; at concentrations below 15 μM)"
"ANP: atrial natriuretic peptide, endogenous NPR-A agonist used in vasorelaxation",8.3,–,–,–,–,–,–,–,–
"O=C(Cn1nccc(Cl)c1=O)c1ccc(Cl)cc1Cl [Compound 24, 4-chloro-2-(2-(2,4-dichlorophenyl)-2-oxoethyl) pyridazin-3(2H)-one]",–,> 6 µM,> 6 µM,lower toxicity,0.2 µM,37.8%,> 6 µM,70-80 fold,did not show any cytotoxic effects
